Test results from PMC11243320, “Tailoring Fibroblast-Activation Protein Targeting for Theranostics: A Comparative Preclinical Evaluation of the ^68Ga- and ^177Lu-Labeled Monomeric and Dimeric Fibroblast-Activation Protein Inhibitors DOTA.SA.FAPi and DOTAGA.(SA.FAPi)2” (Molecules, 2024).

Test system: PC3 tumor-bearing mice
Assay: Ex vivo biodistribution of 177Lu-labeled radiotracers in PC3 xenografts
Settings: for Biodistribution Blood / Biodistribution Bone / Biodistribution Heart / Biodistribution Intestine / Biodistribution Kidney / Biodistribution Liver / Biodistribution Lung / Biodistribution Muscle / Biodistribution PC3-Tumor / Biodistribution Pancreas / Biodistribution Spleen / Biodistribution Stomach / Tumor/Blood ratio / Tumor/Liver ratio / Tumor/Muscle ratio / Tumor/Pancreas ratio: PC3 xenografts
Protocol: U87MG and PC3 tumor-bearing mice: Female athymic BALB/c (6 weeks/16–20 g) and male athymic BALB/c nude mice (6 weeks/20–25 g) were implanted with U87MG or PC3 cells (5 × 10^6/100 µL PBS) into their right shoulder, respectively. The animals were used for biodistribution and PET/SPECT/CT imaging studies (Animal License No: BE98/2021).
Ten pmol (0.06–0.08 MBq) of the radiotracers in 100 µL of NaCl 0.9% were injected intravenously into the tail vein of PC3 tumor-bearing mice. Biodistribution studies were conducted at 1, 4, 24, and 48 h after the injection of [^177Lu]Lu-DOTA.SA.FAPi and at 4, 24, 48, 72, and 96 h after the injection of [^177Lu]Lu-DOTAGA.(SA.FAPi)2 (Supplemental Data). […]
was counted in a γ-counter. Biodistribution data are given as the percent of injected activity per gram of tissue (% IA/g) and as means ± SD (n = 4). […]
[177Lu]Lu-DOTA.SA.FAPi and [177Lu]Lu-DOTAGA.(SA.FAPi)2
Ten pmol (0.06-0.08 MBq) of [177Lu]Lu-monomer and [177Lu]Lu-dimer in 100 µL of NaCl 0.9% were injected intravenously into the tail vein of PC3 tumor-bearing mice. The PC3 tumor-bearing mice were used between the 15th and 17th day after the xenograft implantation and its size was 281 ± 75 mm3. Animals were terminally anesthetized by intraperitoneal injection of an overdose of pentobarbital natrium (150 mg/kg; Streuli Pharma SA, Uznach, Switzerland) 1, 4, 24 and 48 h after the injection of [177Lu]Lu-DOTA.SA.FAPi and at 4, 24, 48, 72 and 96 h after the injection of [177Lu]Lu-DOTAGA.(SA.FAPi)2. The organs of interest were dissected and weighed, and the radioactivity in the tissue samples was counted in a γ-counter. The biodistribution data are given as the percent of injected activity per gram of tissue (% IA/g) and as means ± SD (n = 4). […]
0.25mm. The reconstructed data were corrected for Lutetium-177 decay, normalized, and filtered using a Gaussian 3D algorithm with a 2 mm isotropic kernel and generated using PMOD software. […]
The color scale of […]
the SPECT images was set as 0 to 13% IA/mL allowing for qualitative comparisons among the images.

- PC3 tumor uptake (PC3 tumor-bearing mice, 4 h p.i.): 8.9 ± 0.2 %I.A./g
- Biodistribution Blood (1 h): 9.1 ± 1.8 % IA/g
- Biodistribution Bone (1 h): 4.0 ± 0.5 % IA/g
- Biodistribution Heart (1 h): 3.1 ± 0.7 % IA/g
- Biodistribution Intestine (1 h): 3.2 ± 0.4 % IA/g
- Biodistribution Kidney (1 h): 4.3 ± 0.5 % IA/g
- Biodistribution Liver (1 h): 3.8 ± 0.2 % IA/g
- Biodistribution Lung (1 h): 4.3 ± 0.6 % IA/g
- Biodistribution Muscle (1 h): 3.7 ± 1.0 % IA/g
- Biodistribution PC3-Tumor (1 h): 9.6 ± 0.9 % IA/g
- Biodistribution Pancreas (1 h): 12 ± 1.1 % IA/g
- Biodistribution Spleen (1 h): 3.0 ± 0.1 % IA/g
- Biodistribution Stomach (1 h): 2.5 ± 0.3 % IA/g
- Tumor/Blood ratio (1 h): 1.1
- Tumor/Liver ratio (1 h): 2.2 ± 0.2
- Tumor/Muscle ratio (1 h): 2.8 ± 1.0
- Tumor/Pancreas ratio (1 h): 0.8 ± 0.1
- Biodistribution Blood (4 h): 3.1 ± 0.2 % IA/g
- Biodistribution Bone (4 h): 4.2 ± 0.6 % IA/g
- Biodistribution Heart (4 h): 1.5 ± 0.3 % IA/g
- Biodistribution Intestine (4 h): 1.8 ± 0.3 % IA/g
- Biodistribution Kidney (4 h): 2.6 ± 0.03 % IA/g
- Biodistribution Liver (4 h): 3.0 ± 0.1 % IA/g
- Biodistribution Lung (4 h): 1.7 ± 0.07 % IA/g
- Biodistribution Muscle (4 h): 2.3 ± 0.1 % IA/g
- Biodistribution PC3-Tumor (4 h): 8.9 ± 0.2 % IA/g
- Biodistribution Pancreas (4 h): 5.3 ± 0.4 % IA/g
- Biodistribution Spleen (4 h): 1.7 ± 0.1 % IA/g
- Biodistribution Stomach (4 h): 1.7 ± 0.5 % IA/g
- Tumor/Blood ratio (4 h): 2.9 ± 0.2
- Tumor/Liver ratio (4 h): 3.0 ± 0.1
- Tumor/Muscle ratio (4 h): 3.9 ± 0.1
- Tumor/Pancreas ratio (4 h): 1.7 ± 0.2
- Biodistribution Blood (24 h): 0.2 ± 0.09 % IA/g
- Biodistribution Bone (24 h): 0.7 ± 0.2 % IA/g
- Biodistribution Heart (24 h): 0.1 ± 0.04 % IA/g
- Biodistribution Intestine (24 h): 0.2 ± 0.02 % IA/g
- Biodistribution Kidney (24 h): 0.6 ± 0.06 % IA/g
- Biodistribution Liver (24 h): 1.9 ± 0.3 % IA/g
- Biodistribution Lung (24 h): 0.2 ± 0.03 % IA/g
- Biodistribution Muscle (24 h): 0.3 ± 0.04 % IA/g
- Biodistribution PC3-Tumor (24 h): 1.8 ± 0.1 % IA/g
- Biodistribution Pancreas (24 h): 0.3 ± 0.1 % IA/g
- Biodistribution Spleen (24 h): 0.2 ± 0.03 % IA/g
- Biodistribution Stomach (24 h): 0.1 ± 0.02 % IA/g
- Biodistribution Blood (48 h): 0.01 ± 0.0 % IA/g
- Biodistribution Bone (48 h): 0.1 ± 0.01 % IA/g
- Biodistribution Heart (48 h): 0.03 ± 0.02 % IA/g
- Biodistribution Intestine (48 h): 0.04 ± 0.0 % IA/g
- Biodistribution Kidney (48 h): 0.12 ± 0.07 % IA/g
- Biodistribution Liver (48 h): 1.1 ± 0.1 % IA/g
- Biodistribution Lung (48 h): 0.05 ± 0.04 % IA/g
- Biodistribution Muscle (48 h): 0.05 ± 0.07 % IA/g
- Biodistribution PC3-Tumor (48 h): 1.0 ± 0.1 % IA/g
- Biodistribution Pancreas (48 h): 0.06 ± 0.01 % IA/g
- Biodistribution Spleen (48 h): 0.1 ± 0.06 % IA/g
- Biodistribution Stomach (48 h): 0.05 ± 0.02 % IA/g
Structure (SMILES): N#C[C@@H]1CC(F)(F)CN1C(=O)CNC(=O)c1ccnc2ccc(OCCCCNc3c(NCCNC(=O)CN4CCN(CC(=O)[O-])CCN(CC(=O)[O-])CCN(CC(=O)[O-])CC4)c(=O)c3=O)cc12.[177Lu+3] [[^177Lu]Lu-DOTA.SA.FAPi]
